Source: US7605154B2, “Substituted Thiazolo [4,5-d]pyrimidines as protein kinase inhibitors” (Janssen Pharmaceutica N.V., priority 2005, dated 2009)

Molecular target: T1, EGFR (Homo sapiens, UniProt P00533)
T1 construct: started at nucleotide 2189 (corresponding to amino acid 667) and ended at the termination codon; made in house; host or cells: Sf9 insect cells (baculovirus)
Experiment: EGFR Kinase Assay
Assay type: biochemical
Settings: GST-EGFR, 5 μM ATP
Text: The portion was PCR amplified with primers that added the lambda attB sequences to each end, recombined into an entry vector, then into a, GST destination vector (as described in Gateway Technologies Manual by Invitrogen Corporation, Carlsbad, Calif.).
The destination vector was recombined in the DH10BAC strain of bacteria to produce a bacmid. The bacmid was transfected into Sf 9 cells and the supernatant containing the baculovirus was collected. The GSTEGFR protein was purified using large cultures of Sf 9 cells infected with stock virus. After an appropriate period of time, the cells were collected and lysed. The GSTEGFR was then purified from the lysate on Glutathione-Sepharose columns (as described by Amersham Biosciences, Buckinghamshire, United Kingdom).
The free biotin was separated from the biotinylated polyGluTyr on a gel filtration column.
A mixture of a 10× kinase buffer (500 mM Tris at pH 8.0, 100 mM Magnesium Chloride and 1 mM Sodium Vanadate), DTT (1 mM final from 500 mM stock), ATP (5 μM final from 10 mM stock), biotinylated polyGluTyr (10 μg/μL stock), γ-^33P ATP (10 μCi/μL stock) and water was added to each well (90 μL/well) of a Streptavidin Flashplate (Perkin Elmer, Wellesley, Mass.).
Test compound in 100% DMSO (2 μL) was added to the appropriate wells. Diluted GSTEGFR (1:300 dilution in 50 mM Tris at pH 8.0 and 0.1% bovine serum albumin) (10 μL) was added to the wells to initiate the reactions.
The plates were incubated at 30° C. for 1 hr with shaking. The reacted contents were removed and the plates were sequentially washed three times with a 1×PBS stop buffer (300 μL without Magnesium and Calcium) and 100 mM EDTA. After the final wash, the same stop buffer (200 μL) was added to the wells. The plates were then sealed and read on the TopCount scintillation counter.
Test compounds were assayed in triplicate at 16 concentrations at half-log dilutions starting at 200 uM. A maximum and minimum signal for the assay was determined on each plate. The percent inhibition of a test compound was calculated according to the formula
For a series of test concentrations, the IC50 was derived by graphing percent inhibition against the log of the concentrations tested for a given compound.

T1 sequence (P00533 667-1210 limits assumed): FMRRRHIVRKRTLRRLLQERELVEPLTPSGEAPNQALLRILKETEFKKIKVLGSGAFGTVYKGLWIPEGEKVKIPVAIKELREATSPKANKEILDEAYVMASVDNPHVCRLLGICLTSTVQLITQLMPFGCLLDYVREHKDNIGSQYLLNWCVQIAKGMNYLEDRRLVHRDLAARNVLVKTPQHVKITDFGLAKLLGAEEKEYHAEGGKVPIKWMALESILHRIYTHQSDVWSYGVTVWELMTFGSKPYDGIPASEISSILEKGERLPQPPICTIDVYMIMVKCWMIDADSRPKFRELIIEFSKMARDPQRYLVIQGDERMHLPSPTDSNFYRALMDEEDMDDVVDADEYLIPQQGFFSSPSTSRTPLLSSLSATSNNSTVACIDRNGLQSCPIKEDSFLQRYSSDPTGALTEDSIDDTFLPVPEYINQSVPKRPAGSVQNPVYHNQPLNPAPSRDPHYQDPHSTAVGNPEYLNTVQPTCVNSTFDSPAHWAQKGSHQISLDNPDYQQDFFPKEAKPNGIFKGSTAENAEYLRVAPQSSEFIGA

Row | Structure (SMILES) | IC50 [nM]
1 | Fc1ccc(Nc2ncnc3nc(Nc4ccc(N5CCOCC5)cc4)sc23)cc1Cl [Cpd 1, N^7-(3-chloro-4-fluoro-phenyl)-N^2-(4-morpholin-4-yl-phenyl)-thiazolo[4,5-d]pyrimidine-2,7-diamine] | 44
2 | Fc1ccc(Nc2ncnc3nc(Nc4cccc(CN5CCOCC5)c4)sc23)cc1Cl [Cpd 3, N^7-(3-chloro-4-fluoro-phenyl)-N^2-(3-morpholin-4-ylmethyl-phenyl)-thiazolo[4,5-d]pyrimidine-2,7-diamine] | 119
3 | CN1CCN(Cc2ccc(Nc3nc4ncnc(Nc5ccc(F)c(Cl)c5)c4s3)cc2)CC1 [Cpd 5, N^7-(3-chloro-4-fluoro-phenyl)-N^2-[4-(4-methyl-piperazin-1-ylmethyl)-phenyl]-thiazolo[4,5-d]pyrimidine-2,7-diamine] | 18.4
4 | COc1cc(Nc2nc3ncnc(Nc4ccc(F)c(Cl)c4)c3s2)ccc1CN1CCCCC1 [Cpd 6, N^7-(3-chloro-4-fluoro-phenyl)-N^2-(3-methoxy4-piperidin-1-ylmethyl-phenyl)-thiazolo[4,5-d]pyrimidine-2,7-diamine] | 20
5 | CCc1nccn1Cc1ccc(Nc2nc3ncnc(Nc4cccc(Cl)c4)c3s2)cc1 [Cpd 7, N^7-(3-chloro-phenyl)-N^2-[4-(2-ethyl-imidazol-1-ylmethyl)-phenyl]-thiazolo[4,5-d]pyrimidine-2,7-diamine] | 13
6 | Clc1cccc(Nc2ncnc3nc(Nc4cccc(CN5CCCCC5)c4)sc23)c1 [Cpd 8, N^7-(3-chloro-phenyl)-N^2-(3-piperidin-1-ylmethyl-phenyl)-thiazolo[4,5-d]pyrimidine-2,7-diamine] | 34.7
7 | Clc1cccc(Nc2ncnc3nc(Nc4ccc(Cc5ccncc5)cc4)sc23)c1 [Cpd 9, N^7-(3-chloro-phenyl)-N^2-(4-pyridin-4-ylmethyl-phenyl)-thiazolo[4,5-d]pyrimidine-2,7-diamine] | 18
8 | CN(C)Cc1ccc(Nc2nc3ncnc(Nc4ccc(F)c(Cl)c4)c3s2)cc1 [Cpd 10, N^7-(3-chloro-4-fluoro-phenyl)-N^2-(4-dimethylaminomethyl-phenyl)-thiazolo[4,5-d]pyrimidine-2,7-diamine] | 12.3
9 | COc1ccc(Nc2nc3ncnc(Nc4ccc(F)c(Cl)c4)c3s2)cc1 [Cpd 12, N^7-(3-chloro4-fluoro-phenyl)-N^2-(4-methoxy-phenyl)-thiazolo[4,5-d]pyrimidine-2,7-diamine] | 117
10 | Oc1ccc(Nc2nc3ncnc(Nc4ccc(F)c(Cl)c4)c3s2)cc1 [Cpd 13, 4-[7-(3-chloro4-fluoro-phenylamino)-thiazolo[4,5-d]pyrimidin-2-ylamino]-phenol] | 95
11 | Fc1ccc(Nc2ncnc3nc(Nc4ccc(OCCN5CCOCC5)cc4)sc23)cc1Cl [Cpd 14, N^7-(3-chloro-4-fluoro-phenyl)-N^2-[4-(2-morpholin-4-yl-ethoxy)-phenyl]-thiazolo[4,5-d]pyrimidine-2,7-diamine] | 59.4
12 | Fc1ccc(Nc2ncnc3nc(Nc4ccc(OCCN5CCCC5)cc4)sc23)cc1Cl [Cpd 15, N^7-(3-chloro-4-fluoro-phenyl)-N^2-[4-(2-pyrrolidin-1-yl-ethoxy)-phenyl]-thiazolo[4,5-d]pyrimidine-2,7-diamine] | 90.1
13 | Fc1ccc(Nc2ncnc3nc(Nc4ccc(OCCCN5CCN(c6ccc(Cl)cc6)CC5)cc4)sc23)cc1Cl [Cpd 16, N^7-(3-chloro-4-fluoro-phenyl)-N^2-(4-{3-[4-(4-chloro-phenyl)-piperazin-1-yl]-propoxy}-phenyl)-thiazolo[4,5-d]pyrimidine-2,7-diamine] | 165
14 | Fc1ccc(Nc2ncnc3nc(Nc4ccc(CN5CCCCCC5)cc4)sc23)cc1Cl [Cpd 19, N^2-(4-azepan-1-ylmethyl-phenyl)-N^7-(3-chloro-4-fluoro-phenyl)-thiazolo[4,5-d]pyrimidine-2,7-diamine] | 6
15 | Fc1ccc(Nc2ncnc3nc(Nc4ccc(CN5CCSCC5)cc4)sc23)cc1Cl [Cpd 20, N7-(3-chloro-4-fluoro-phenyl)-N^2-(4-thiomorpholin4-ylmethyl-phenyl)-thiazolo[4,5-d]pyrimidine-2,7-diamine] | 49.3
16 | CN(Cc1ccc(Nc2nc3ncnc(Nc4ccc(F)c(Cl)c4)c3s2)cc1)C1CCCCC1 [Cpd 21, N^7-(3-chloro-4-fluoro-phenyl)-N^2-{4-[(cyclohexyl-methyl-amino)-methyl]-phenyl}-thiazolo[4,5-d]pyrimidine-2,7-diamine] | 13.3
17 | NCC1CCN(Cc2ccc(Nc3nc4ncnc(Nc5ccc(F)c(Cl)c5)c4s3)cc2)CC1 [Cpd 22, N^2-[4-(4-aminomethyl-piperidin-1-ylmethyl)-phenyl]-N^7-(3-chloro-4-fluoro-phenyl)-thiazolo[4,5-d]pyrimidine-2,7-diamine] | 9.3
18 | Fc1ccc(Nc2ncnc3nc(Nc4ccc(Cn5ccnc5)cc4)sc23)cc1Cl [Cpd 23, N^7-(3-chloro-4-fluoro-phenyl)-N^2-(4-imidazol-1-ylmethyl-phenyl)-thiazolo[4,5-d]pyrimidine-2,7-diamine] | 6.3
19 | CC1CC(C)CN(Cc2ccc(Nc3nc4ncnc(Nc5ccc(F)c(Cl)c5)c4s3)cc2)C1 (centres unmarked) [Cpd 24, N^7-(3-chloro-4-fluoro-phenyl)-N^2-[4-(3,5-dimethyl-piperidin-1-ylmethyl)-phenyl]-thiazolo[4,5-d]pyrimidine-2,7-diamine] | 21.6
20 | COC[C@@H]1CCCN1Cc1ccc(Nc2nc3ncnc(Nc4ccc(F)c(Cl)c4)c3s2)cc1 [Cpd 26, N^7-(3-chloro-4-fluoro-phenyl)-N^2-[4-(2S)-(2-methoxymethyl-pyrrolidin-1-ylmethyl)-phenyl]-thiazolo[4,5-d]pyrimidine-2,7-diarmine] | 11.8
21 | CN(C)C(=O)c1ccc(Nc2nc3ncnc(Nc4ccc(F)c(Cl)c4)c3s2)cc1 [Cpd 27, 4-[7-(3-chloro-4-fluoro-phenylamino)-thiazolo[4,5-d]pyrimidin-2-ylamino]-N,N-dimethyl-benzamide] | 15
22 | CCOC(=O)N1CCN(Cc2ccc(Nc3nc4ncnc(Nc5ccc(F)c(Cl)c5)c4s3)cc2)CC1 [Cpd 28, 4-{4-[7-(3-chloro-4-fluoro-phenylamino)-thiazolo[4,5-d]pyrimidin-2-ylamino]-benzyl}-piperazine-1-carboxylic acid ethyl ester] | 57
23 | CCOC(=O)C1CCN(Cc2ccc(Nc3nc4ncnc(Nc5ccc(F)c(Cl)c5)c4s3)cc2)CC1 [Cpd 29, 1-{4-[7-(3-chloro-4-fluoro-phenylamino)-thiazolo[4,5-d]pyrimidin-2-ylamino]-benzyl}-piperidine-4-carboxylic acid ethyl ester] | 27.8
24 | CCc1nccn1Cc1ccc(Nc2nc3ncnc(Nc4ccc(F)c(Cl)c4)c3s2)cc1 [Cpd 30, N^7-(3-chloro-4-fluoro-phenyl)-N^2-[4-(2-ethyl-imidazol-1-ylmethyl)-phenyl]-thiazolo[4,5-d]pyrimidine-2,7-diamine] | 5.5
25 | c1ccc(Cn2ncc3ccc(Nc4ncnc5nc(Nc6ccc(CN7CCOCC7)cc6)sc45)cc32)cc1 [Cpd 36, N^7-(1-benzyl-1H-indazol-6-yl)-N^2-(4-morpholin-4-ylmethyl-phenyl)-thiazolo[4,5-d]pyrimidine-2,7-diamine] | 1020
26 | C#Cc1cccc(Nc2ncnc3nc(Nc4ccc(S(=O)(=O)NCCCN(C)C)cc4)sc23)c1 [Cpd 37, N-(3-dimethylamino-propyl)-4-[7-(3-ethynyl-phenylamino)-thiazolo[4,5-d]pyrimidin-2-ylamino]-benzenesulfonamide] | 25.3
